The text below walks through data of patent US6638961B2 (priority 1994, dated 2003).

Values joined by “and” are separate entries in the source; they are usually repeats but may differ in a detail not shown here. Equal entries are not always repeated.

For experiment [1], the system named is Plasmopara viticola (vine downy mildew). Description: In vivo trial on Plasmopara viticola (vine downy mildew) by preventive treatment at 72 hours, vine cuttings Chardonnay variety. As to the method:
(§1) A 60 mg suspension is prepared comprising compounds A and B in a liquid mixture consisting of 0.3 ml of a surface-active agent (oleate of a polyoxyethylenated derivative of sorbitan) diluted 10% in water and of 60 ml of water.
(§2) Vine cuttings (Vitis vinifera) Chardonnay variety, are cultivated in pots. When these plants are 2 months old (8 to 10-leaf stage, height 10 to 15 cm), they are treated by spraying using the above suspension.
(§3) Plants used as controls are treated with a similar suspension but not containing any active substance (formulation blank).
(§4) After drying for 72 hours, each plant is contaminated by spraying an aqueous Plasmopara viticola spore suspension obtained from sporulated leaves contaminated 7 days earlier. These spores are suspended in an amount of 100,000 units per cm^3.
(§5) The contaminated plants are then incubated for two days at about 18° C., in an atmosphere saturated with moisture, and then for 5 days at 20-22° C. under a relative humidity of 90-100%.

The subject of experiment [2] is Phytophthora infestans (tomato blight). The experiment is classed as in vivo. To be noted: for dose of the active substance alone which it is necessary to apply to obtain the destruction of 90% of the pest: applied alone, tomato plants sprayed 48 hours before contamination, reading 7 days after contamination.
For experiment [3], the system named is Plasmopara viticola (vine downy mildew). In words: In vivo trial on Plasmopara viticola (vine downy mildew) by preventive treatment at 24 hours, vine cuttings Chardonnay variety. To be noted: dose 3.2 mg/l compound A and/or 12.5 mg/l mancozeb; contamination 24 hours after treatment. Here is the method:
as §1, §2, §3, §4, §5
Example 2 is repeated using as component B mancozeb, using A and B concentrations in the suspension for treating the plants equal to 3.2 and 12.5 mg/l respectively, and finally carrying out the contamination 24 hours after the treatment.
The efficacy measured, as well as the efficacy of products A and B alone measured under the same conditions, is indicated in the table below. […]

For the molecule `CSC1=N[C@@](C)(c2ccccc2)C(=O)N1Nc1ccccc1` [Compound A, (4S)-4-methyl-2-methylthio-4-phenyl-1-phenylamino-2-imidazolin-5-one], the “dose of the active substance alone which it is necessary to apply to obtain the destruction of 90% of the pest” value in experiment [1] (applied alone, vine plants sprayed 72 hours before contamination, reading 7 days after contamination) is 20 mg/L; in experiment [2], 309 mg/L and 163 mg/L. In addition, the “Efficacy (in %)” value in experiment [3] came out at 80.8%.

Regarding `CCO[PH](=O)O` [fosetyl-Al], the “efficacy when applied alone” value was “not effective” in experiment [1] (applied alone under the trial conditions, preventive 72 hours, 90% destruction level (FIG. 2)) and “not effective” in experiment [2] (applied alone under the trial conditions, preventive 48 hours, 90% destruction level (FIG. 1)).

On to `CCN(C)C(=O)c1ccc(C(F)(F)F)cc1-c1ccc(OC)c(OC)c1` [N-methyl-N-ethyl-2-(3,4-dimethoxyphenyl)-4-trifluoromethylbenzamide], for which the “dose of the active substance alone which it is necessary to apply to obtain the destruction of 90% of the pest” value in experiment [2] worked out at 166 mg/L.

As for mancozeb, the “Efficacy (in %)” value in experiment [3] amounted to 0%.
